Assay results: BigSolDB 2.1

CC(C)c1ncc[nH]1
solubility (mole fraction)
Conditions | in 2-butanone | in acetone | in acetonitrile | in ethanol | in ethyl acetate | in isopropanol | in methanol | in n-propanol | in toluene
278.15 K | 0.11 | 0.0906 | 0.0259 | 0.189 | 0.0519 | 0.0738 | 0.224 | 0.0999 | 0.0215
280.65 K | 0.116 | 0.0946 | 0.0275 | 0.196 | 0.0556 | 0.0768 | 0.233 | 0.104 | 0.0225
283.15 K | 0.121 | 0.0988 | 0.0291 | 0.203 | 0.0588 | 0.0801 | 0.242 | 0.109 | 0.0237
285.65 K | 0.127 | 0.103 | 0.0308 | 0.21 | 0.0626 | 0.0825 | 0.252 | 0.114 | 0.0248
288.15 K | 0.133 | 0.108 | 0.0325 | 0.216 | 0.066 | 0.0856 | 0.263 | 0.117 | 0.026
290.65 K | 0.139 | 0.111 | 0.0343 | 0.226 | 0.0697 | 0.0883 | 0.274 | 0.121 | 0.0272
293.15 K | 0.145 | 0.116 | 0.0361 | 0.235 | 0.0737 | 0.0927 | 0.285 | 0.126 | 0.0287
295.65 K | 0.152 | 0.121 | 0.0379 | 0.243 | 0.0778 | 0.0965 | 0.297 | 0.133 | 0.0302
298.15 K | 0.159 | 0.127 | 0.0401 | 0.253 | 0.0826 | 0.101 | 0.31 | 0.139 | 0.0318
300.65 K | 0.167 | 0.133 | 0.0427 | 0.263 | 0.0883 | 0.105 | 0.322 | 0.146 | 0.0336
303.15 K | 0.177 | 0.14 | 0.0453 | 0.273 | 0.0939 | 0.11 | 0.334 | 0.153 | 0.0355
305.65 K | 0.185 | 0.146 | 0.0481 | 0.282 | 0.0994 | 0.115 | 0.348 | 0.159 | 0.0374
308.15 K | 0.194 | 0.153 | 0.0509 | 0.294 | 0.105 | 0.121 | 0.361 | 0.166 | 0.0394
310.65 K | 0.203 | 0.159 | 0.0538 | 0.304 | 0.112 | 0.126 | 0.376 | 0.173 | 0.0416
313.15 K | 0.213 | 0.166 | 0.0568 | 0.315 | 0.118 | 0.132 | 0.39 | 0.18 | 0.0437
